Assay results from patent US9040714B2 (MannKind Corporation, priority 2010, dated 2015).
Like-named read-outs stand apart in the source and are kept apart here.

Tests used:
[1] = target: human IRE-1α (GST-IRE-1α) (Homo sapiens (Human), UniProt O75460); experiment: IRE-1α assay in vitro: cleavage of Cy5/BHQ2-labelled mini-XBP-1 mRNA stem-loop substrate; assay type: biochemical; conditions: average IC50 for inhibition of IRE-1α
Protocol: In some embodiments IRE-la inhibitor compounds form a complex with IRE-1α. […] Other substrates also can be used to detect cleavage. See US 2007/0105123.
A fusion protein comprising glutathione S transferase (GST) and human IRE-1α (GST-IRE-1α) obtained from a 500 ml baculovirus-infected insect cell culture can be used to measure IRE-1α activity in vitro.
Five μl of a reaction mixture comprising IX reaction buffer (5× reaction buffer is 100 mM Hepes pH 7.5, 250 mM KOAc, 2.5 mM MgCl2), 3 mM DTT, and 0.4% polyethylene glycol water is added to each well of 384 well plates. Twenty-five nanoliters of a 1 mM test compound solution are added to test wells. Three μl of a […] IRE-1α preparation are added to each test well and to positive control wells (final concentration 5.82 ng/well). Negative control wells contain only reaction mixture and test compound.
After spinning the plates at 1200 rpm for 30 seconds, 3 μl of an IRE-1α human mini-XBP-1 mRNA stem-loop substrate 5′-[…]-3′ (SEQ ID NO:1), labeled with the fluorescent dye Cy5 at the 5′ end and Black Hole Quencher 2 (BH2) at the 3′ end, are added to each well of a control plate. The plates are again spun at 1200 rpm for 30 seconds. Final concentrations for the assay are: 63 nM IRE-1α substrate, 5.82 ng IRE-1α protein, and 2.5 μM test compound.
The plates are covered with lids and incubated for one hour at 30° C. The plates are then transferred to an ACQUEST™ microplate reader. Data is analyzed using data analysis software, and the percent activity of IRE-1α is calculated.
IC50 for inhibition of IRE-1α of compounds identified in Table 1 was measured as described in EXAMPLE 35.

[2] = test system: IRE-1α-mediated XBP-1 splicing in human myeloma MM.1s cells; experiment: Cellular EC50: endogenous XBP-1 splicing in myeloma cells by RT-PCR (DTT stress); assay type: cell-based; conditions: MM1.S, read-out: EC50_av
Protocol: Human myeloma MM.1s cells are incubated with a compound for 1.25 hours before stressing the cells with 2 mM dithiothreitol (DTT). After an additional 45 minutes (2 hours total) with compound and DTT, the cells are harvested with TRIZOL® (a mono-phasic solution of phenol and guanidine isothiocyanate), and total RNA is prepared as directed by the manufacturer (Invitrogen). Human XBP-1 is amplified by RT-PCR with the following primers, which flank the 26 base unconventional intron excised by IRE-1α:
RT-PCR of unstressed (U) cells then generates the upper band. When cells are stressed (S) with the endoplasmic reticulum (ER) stressing agent DTT, IRE-1α is activated due to accumulating unfolded protein and the resulting RT-PCR, product is 26 base pairs shorter.
Compounds which pass specificity assays are assayed for cellular EC50 using endogenous XBP-1 splicing in myeloma cells. XBP-1 is regulated through the excision of a 26 nucleotide intron from the XBP-1 mRNA by the highly specific endoribonuclease activity of IRE-1α. […] This splicing event is used to measure IRE-1α activity on XBP-1 mRNA in cells and tissues.
Briefly, compounds are incubated in the presence or absence of an ER stress agent (e.g., DTT), and the ratio of XBP-1u (unspliced) to XBP-1 s (spliced) is quantified by RT-PCR. The ED50 is determined as the 50% XBP-1s to total XPB-1 levels.

[3] = average cellular EC50, XBP-1 splicing in myeloma cells

Sequence of human IRE-1α (GST-IRE-1α) (O75460 19-977): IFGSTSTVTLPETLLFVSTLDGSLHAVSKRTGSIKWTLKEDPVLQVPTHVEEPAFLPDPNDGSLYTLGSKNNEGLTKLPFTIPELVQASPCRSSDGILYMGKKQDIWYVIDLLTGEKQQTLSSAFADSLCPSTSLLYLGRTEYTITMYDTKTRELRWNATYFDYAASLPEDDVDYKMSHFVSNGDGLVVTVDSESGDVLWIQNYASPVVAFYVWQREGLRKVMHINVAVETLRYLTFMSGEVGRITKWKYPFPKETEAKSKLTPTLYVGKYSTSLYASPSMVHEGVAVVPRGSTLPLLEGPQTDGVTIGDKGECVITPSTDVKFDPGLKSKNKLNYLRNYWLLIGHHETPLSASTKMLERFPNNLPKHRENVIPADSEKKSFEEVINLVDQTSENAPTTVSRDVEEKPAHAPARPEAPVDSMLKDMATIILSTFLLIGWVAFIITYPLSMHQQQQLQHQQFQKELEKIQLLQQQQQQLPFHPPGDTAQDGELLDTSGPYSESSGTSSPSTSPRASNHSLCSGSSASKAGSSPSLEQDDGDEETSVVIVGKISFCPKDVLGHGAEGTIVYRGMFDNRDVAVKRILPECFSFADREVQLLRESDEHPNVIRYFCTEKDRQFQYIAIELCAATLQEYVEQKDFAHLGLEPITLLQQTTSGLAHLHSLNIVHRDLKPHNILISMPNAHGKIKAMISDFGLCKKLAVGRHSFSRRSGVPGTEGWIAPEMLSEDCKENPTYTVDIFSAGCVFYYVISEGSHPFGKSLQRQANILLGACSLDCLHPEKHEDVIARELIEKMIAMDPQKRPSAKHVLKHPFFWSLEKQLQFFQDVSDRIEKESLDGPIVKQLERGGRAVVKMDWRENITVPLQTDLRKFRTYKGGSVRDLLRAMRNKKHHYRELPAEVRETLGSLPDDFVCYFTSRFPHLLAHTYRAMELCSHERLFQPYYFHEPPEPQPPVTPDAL

Row | SMILES | IC50 [1] [µM] | EC50 [2, 3] [µM] | EC50 [2] [µM]
1 | Cc1c(-c2ccc(C(=O)NCCN3CCOCC3)cc2)c(=O)oc2c(C=O)c(O)ccc12 [Example 3] | < 0.1 | < 10 | –
2 | CCNC(=O)Cc1c(C)c2cc(OC)c(O)c(C=O)c2oc1=O [Example 169] | < 0.1 | < 10 | –
3 | Cc1c(-c2ccc(C(=O)NCCN3CCOCC3)cc2)c(=O)oc2c(C=O)c(O)c(Cl)cc12 [Example 151] | < 1 | > 10 | –
4 | COCCNC(=O)Cc1c(C)c2cc(OC)c(O)c(C=O)c2oc1=O [Example 166] | < 1 | < 10 | –
5 | O=Cc1c(O)ccc2c1CCN(C(=O)c1cccnc1)C2 [Example 31] | > 10 | – | –
6 | Cc1c(-c2cccc(C(=O)N3CCN(C)CC3)c2)c(=O)oc2c(C=O)c(O)ccc12 [Example 10] | < 0.1 | – | < 10
7 | Cc1c(-c2cccc(C(=O)NCCN3CCOCC3)c2)c(=O)oc2c(C=O)c(O)ccc12 [Example 11] | < 0.1 | < 10 | –
8 | COCCOCCc1c(C)c2cc(OC)c(O)c(C=O)c2oc1=O [Example 127] | < 0.1 | < 10 | –
9 | COc1cc2c(C)c(-c3ccc(N4CCOCC4)nc3)c(=O)oc2c(C=O)c1O [Example 114] | < 1 | < 10 | –
10 | COc1cc2c(C)c(-c3ccc(C(=O)N4CCN(C)CC4)s3)c(=O)oc2c(C=O)c1O [Example 141] | < 0.1 | < 10 | –
11 | COCCOc1cc2c(C)c(CCC(=O)NCCN3CCOCC3)c(=O)oc2c(C=O)c1O [Example 186] | < 1 | > 10 | –
12 | Cc1nc(-c2cc3ccc(O)c(C=O)c3oc2=O)sc1C(=O)NCCN1CCOCC1 [Example 109] | < 0.1 | < 10 | –
13 | COc1cc2c(CN(C)C)c(C)c(=O)oc2c(C=O)c1O [Example 133] | < 0.1 | < 10 | –
14 | COc1cc2c(C)c(CC(=O)N3CCN(C)CC3)c(=O)oc2c(C=O)c1O [Example 168] | < 0.1 | < 10 | –
15 | O=Cc1c(O)ccc2cc(C(=O)O)c(=O)oc12 [Example 8] | > 10 | – | > 10
16 | CCNC(=O)CCc1c(C)c2cc(OC)c(O)c(C=O)c2oc1=O [Example 174] | < 0.1 | < 10 | –
17 | COc1cc2c(C)c(-c3ccc(N4CCN(C)CC4)nc3)c(=O)oc2c(C=O)c1O [Example 113] | < 0.1 | – | < 10
18 | Cc1nc(N2CCc3c(ccc(O)c3C=O)C2)sc1C(=O)N1CCN(C)CC1 [Example 32] | < 10 | – | –
19 | CN1CCN(CC(=O)N2CCc3c(ccc(O)c3C=O)C2)CC1 [Example 30] | > 10 | – | –
20 | CCOC(=O)CCc1c(C)c2cc(N(C)C(C)=O)c(O)c(C=O)c2oc1=O [Example 144] | – | > 10 | –
21 | O=Cc1c(O)ccc2sc(C(=O)N3CCOCC3)cc12 [Example 259] | – | > 10 | –
22 | COCCOc1cc2c(C)c(CC(=O)N3CCN(C)CC3)c(=O)oc2c(C=O)c1O [Example 189] | – | < 10 | –
23 | COC(=O)c1ccc(-c2nc3ccc(O)c(C=O)c3[nH]2)cc1 [Compound 59] | – | > 10 | –

Row | SMILES | IC50 [1] [µM] | EC50 [2, 3] [µM] | EC50 [2] [µM]
24 | O=Cc1c(O)ccc2nc(-c3ccc(C(=O)N4CCCC4)cc3)ccc12 [Compound 48] | – | < 10 | –
25 | COc1cc2c(=O)c(CCC(=O)NCCN3CCOCC3)c(C)oc2c(C=O)c1O [Example 93] | – | > 10 | –
26 | CCOC(=O)c1cc2c(C=O)c(O)ccc2o1 [Example 280] | – | > 10 | –
27 | CN(C)CCNC(=O)c1cc2c(C=O)c(O)ccc2s1 [Example 263] | – | > 10 | –
28 | Cc1oc2c(C=O)c(O)ccc2c(=O)c1CC(=O)N1CCOCC1 [Example 221] | – | > 10 | –
29 | COCCc1c(C)c2c(OC)cc(O)c(C=O)c2oc1=O [Example 124] | – | < 10 | –
30 | Cc1oc2c(C=O)c(O)ccc2c(=O)c1CC(=O)NCCN1CCOCC1 [Example 225] | – | > 10 | –
31 | CN(C)CCNC(=O)CCc1nc2c(C=O)c(O)ccc2[nH]1 [Example 236] | – | > 10 | –
32 | COc1cc2c(C)c(CC(=O)N3CCOCC3)c(=O)oc2c(C=O)c1O [Example 167] | – | < 10 | –
33 | COCCNC(=O)CCc1c(C)oc2c(C=O)c(O)c(OC)cc2c1=O [Example 212] | – | > 10 | –
34 | CN1CCN(C(=O)CCc2nc3c(C=O)c(O)ccc3n2C)CC1 [Example 244] | – | > 10 | –
35 | Cc1oc2c(C=O)c(O)ccc2c(=O)c1CCC(=O)N1CCN(C)CC1 [Example 88] | – | > 10 | –
36 | CC(=O)NC1CCN(c2ccc3c(C=O)c(O)ccc3n2)C1 (stereo not shown) [Compound 51] | – | < 10 | –
37 | Cc1c(-c2ccc(C(=O)N3CCN(C)CC3)cc2)c(=O)oc2c(C=O)c(O)ccc12 [Example 2] | – | < 10 | –
38 | Cc1c(-c2cccc(C(=O)N3CCCC3)c2)c(=O)oc2c(C=O)c(O)ccc12 [Example 21] | – | – | > 10
39 | COCCc1c(C)c2c(O)cc(O)c(C=O)c2oc1=O [Example 123] | – | < 10 | –
40 | Cc1c(Br)c(=O)oc2c(C=O)c(O)ccc12 [Example 1] | – | < 10 | –
41 | C=CCc1c(C)c2c(OC)cc(O)c(C=O)c2oc1=O [Example 126] | – | < 10 | –
42 | O=Cc1c(O)ccc2sc(CC(=O)O)cc12 [Example 265] | – | > 10 | –
43 | COCCNC(=O)c1cc2c(C=O)c(O)ccc2s1 [Example 258] | – | > 10 | –
44 | COc1cc2c(C)c(Br)c(=O)oc2c(C=O)c1O [Example 6] | – | – | < 10
45 | CCNC(=O)Cc1c(C)oc2c(C=O)c(O)ccc2c1=O [Example 223] | – | < 10 | –
46 | COc1cc(O)c(C=O)c2oc(=O)c(C)c(CN3CCOCC3)c12 [Example 134] | – | < 10 | –

Row | SMILES | IC50 [1] [µM] | EC50 [2, 3] [µM] | EC50 [2] [µM]
47 | O=Cc1c(O)ccc2oc(C(=O)O)cc12 [Example 281] | – | > 10 | –
48 | Cc1oc2c(C=O)c(O)ccc2c(=O)c1CCC(=O)NCCN(C)C [Example 218] | – | > 10 | –
49 | COCCNC(=O)CCc1cc2c(C=O)c(O)ccc2s1 [Example 266] | – | < 10 | –
50 | CN1CCN(C(=O)c2ccc(-c3nc4ccc(O)c(C=O)c4[nH]3)cc2)CC1 [Compound 62] | – | – | > 10
51 | Cn1c(CCC(=O)N2CCOCC2)nc2ccc(O)c(C=O)c21 [Example 229] | – | > 10 | –
52 | COCCOCCc1c(C)c2c(OC)cc(O)c(C=O)c2oc1=O [Example 145] | – | < 10 | –
53 | CN(C)CCNC(=O)c1cc2c(C=O)c(O)ccc2[nH]1 [Example 278] | – | > 10 | –
54 | Cc1nc2ccc(O)c(C=O)c2o1 [Example 256] | – | > 10 | –
55 | Cn1c(CCC(=O)O)nc2ccc(O)c(C=O)c21 [Example 240] | – | > 10 | –
56 | COCCNC(=O)Cc1c(C)oc2c(C=O)c(O)cc(OC)c2c1=O [Example 226] | – | < 10 | –
57 | COCCOc1cc2c(C)c(CC(=O)NCCN3CCOCC3)c(=O)oc2c(C=O)c1O [Example 187] | – | < 10 | –
58 | COc1cc(O)c(C=O)c2oc(=O)c(CCC(=O)NCCN(C)C)c(C)c12 [Example 195] | – | < 10 | –
59 | COCCOc1cc2c(C)c(CC(=O)N3CCOCC3)c(=O)oc2c(C=O)c1O [Example 188] | – | < 10 | –
60 | CCNC(=O)c1cc2c(C=O)c(O)ccc2s1 [Example 261] | – | < 10 | –
61 | COc1cc(O)c(C=O)c2oc(C)c(CC(=O)N3CCOCC3)c(=O)c12 [Example 227] | – | < 10 | –
62 | O=Cc1c(O)ccc2nc(-c3cccc(C(=O)N4CCCC4)c3)ccc12 | – | > 10 | –
63 | O=Cc1c(O)ccc2nc(-c3ccc(C(=O)NCCN4CCOCC4)cc3)[nH]c12 [Compound 60] | – | > 10 | –
64 | CC(C(=O)N1CCOCC1)c1nc2c(C=O)c(O)ccc2o1 (stereo not shown) [Example 254] | – | > 10 | –
65 | COCCOc1cc(O)c(C=O)c2oc(=O)c(CC(=O)NCCN(C)C)c(C)c12 [Example 164] | – | > 10 | –
66 | CCNC(=O)c1cc2c(C=O)c(O)ccc2[nH]1 [Example 276] | – | > 10 | –
67 | CCOC(=O)CCc1nc2c(C=O)c(O)ccc2n1C [Example 245] | – | < 10 | –
68 | Cc1c(CCC(=O)N2CCOCC2)c(=O)oc2c(C=O)c(O)ccc12 [Example 69] | – | < 10 | –
69 | COCCOc1cc(O)c(C=O)c2oc(=O)c(C)c(C)c12 [Example 165] | – | < 10 | –
